Here are results for two compounds from patent publication US20240174649A1, “CULLIN-RING E3 UBIQUITIN LIGASE 4 INHIBITOR COMPOUNDS AND METHODS OF THEIR USE” (ICAHN SCHOOL OF MEDICINE AT MOUNT SINAI, priority 2021, published 2024).

The target of test [1] is E3 CRL4^CRBN (Homo sapiens (Human), UniProt Q13619). The test can be described thus: Lenalidomide-dependent ubiquitination of CK1α by CRL4^CRBN. The test is classed as biochemical. To be noted: at 30 μM. On the procedure:
To prepare Flag-CK1α as a substrate for ubiquitination experiments described in FIGS. 2A-E, the expression vector (purchased from Addgene) was introduced to HEK-293T cells by transfection using Lipofectamine RNAIMAX (ThermoFisher) according to manufacturer's protocols. Cell extracts were prepared and the concentration of Flag-CK1α was determined using immunoblot analysis with purified GST-CK1α (Sigma) as a standard. Typically, 50-100 μl of extracts was used to attach to ˜15 μl of M2 beads (Sigma) at 4° C. for 2 hours. Unbound materials were removed by washing (first three times with a washing buffer containing 50 mM Tris-HCl, pH8.0, 1% Triton X-100, 0.5M NaCl, and then twice with buffer A plus 50 mM NaCl) and the resulting beads were used in the ubiquitination assay (15 μl). The concentration of Flag-CK1α was determined to be ˜100 nM.
Immobilized, Flag-CK1α-containing beads were initially incubated with a reaction mixture (10 μl) containing 50 mM Tris-HCl (pH7.4), 0.5 mM DTT, 0.1 mg/ml of BSA, 5 mM MgCl2, 100 nM CRL4^CRBN, 1 μM Lenalidomide (Selleckchem), 1 μM Fluorescein-Ub, 100 nM E1, and 1 μM UbcH5c. ATP (20 mM) was added last to initiate the reaction. The reaction was incubated on a thermomixer (1,300 rpm; Eppendorf) at 37° C. for 5 min. The resulting beads were then added with a second reaction mixture (5 μl) containing 50 mM Tris-HCl (pH7.4), 0.5 mM DTT, 0.1 mg/ml of BSA, 5 mM MgCl2, 4 μM I-Ub-Q31C/K48R, and 1 μM Cdc34b, in the presence or absence of E3 inhibitors as specified. The reaction was incubated on a thermomixer at 37° C. for times as indicated. The concentrations of enzymes, Ubs, and compounds stated above were adjusted based on a final volume of 15 μl. The beads were then washed using conditions as described above. Materials eluted from the beads were separated by 4-20% SDS-PAGE followed by detection with fluorescence scanning (Typhoon 9500) or immunoblot using anti-CK1α antibody (Abcam). […]

The target in test [2] is ROC1-CUL1 (Homo sapiens (Human), UniProt Q13616). The test can be described thus: Gel-based di-Ub synthesis. The test is classed as biochemical. The protocol:
For the experiment shown in FIG. 7 and FIGS. 8A-B, the di-Ub synthesis reaction was carried out by preassembling the donor Ub mix. The donor Ub mixture (5 μl) contained 50 mM Tris HCl (pH 7.4), 5 mM MgCl2, 2 mM ATP, 0.5 mM DTT, 0.1 mg/mL BSA, 1 μM Ub-NC-I555, 0.1 μM E1, and 2 μM Cdc34b. The reaction was incubated for 5 min at 37° C. Compounds, in the amounts indicated, were added followed by the addition of ROC1-CUL1 (or related E3 subcomplex) in amounts as indicated and 10 μM PK-Ub (1-74) (as a receptor). The final volume was adjusted to 10 μl. The reaction was incubated for 10 min at 37° C.
For the experiments shown in FIG. 8C and FIG. 9, the reaction was assembled in a 10-μl mixture containing 50 mM Tris HCl (pH 7.4), 5 mM MgCl2, 0.5 mM DTT, 0.1 mg/mL BSA, 0.05 μM Ub-NC-I555, 2,5 μM PK-Ub (1-74), 0.1 μM E1, 1 μM Cdc34b, and 80 nM ROC1-CUL1 with or without compound. The reaction was initiated by the addition of 2 mM ATP. The products were separated by 4-20% SDS/PAGE and were visualized and quantified on a Typhoon FLA 9500 laser scanner (GE).

Test [3] addresses T1, ROC1-CUL1 CTD (Homo sapiens (Human), UniProt Q13616). In words: Ligand binding by MST. Particulars: Table 5, MST; read-out: E3 binding Kd. On the procedure:
E3 ligase complex (˜2 nmol) was labeled with fluorescent dye using Monolith NT Protein Labeling Kit Red-NHS (Nanotemper) in the presence of 20 mM MES pH 6.0 and 150 mM NaCl. Excess dye was removed using the included gravity flow column and eluted in storage buffer containing 20 mM Tris-HCl, pH 7.4, 150 mM NaCl, and 10% glycerol. The fluorescent E3 complex (˜0.01-0.06 μM) was mixed with increasing amount of compound in a buffer (20 μl) that contains phosphate-buffered saline, 0.1% TWEEN-20 and 2% prionex. Following incubation at room temperature for 30 min, the reaction mixture loaded into premium coated capillaries and analyzed in the Monolith NT.115 machine (Nanotemper). Thermophoresis was recorded for each sample and binding curve was generated and Kd was calculated using the included software. For reactions where significant ligand specific fluorescence quenching occurred (verified by manufacturer's SDS Denaturation-test protocol), the initial fluorescence quenching data was used directly to calculate the binding curve and Kd.

The target in test [4] is T1, ROC1-CUL1 CTD. In words: FRET K48 di-Ub synthesis assay. The test is classed as biochemical. Particulars: HTS screening conditions, read-out: inhibition of the reaction.

T1 sequence (Q13616 411-776): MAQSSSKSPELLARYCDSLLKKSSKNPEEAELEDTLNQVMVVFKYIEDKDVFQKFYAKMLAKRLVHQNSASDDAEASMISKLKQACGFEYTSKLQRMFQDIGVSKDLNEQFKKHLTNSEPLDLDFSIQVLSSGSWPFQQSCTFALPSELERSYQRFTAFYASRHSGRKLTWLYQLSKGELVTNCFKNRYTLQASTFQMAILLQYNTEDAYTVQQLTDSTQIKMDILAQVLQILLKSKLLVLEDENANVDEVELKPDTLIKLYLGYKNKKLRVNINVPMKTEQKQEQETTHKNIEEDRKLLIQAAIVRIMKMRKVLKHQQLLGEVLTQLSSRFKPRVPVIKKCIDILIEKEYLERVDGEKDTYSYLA
T1 sequence (P62877 whole entry partner): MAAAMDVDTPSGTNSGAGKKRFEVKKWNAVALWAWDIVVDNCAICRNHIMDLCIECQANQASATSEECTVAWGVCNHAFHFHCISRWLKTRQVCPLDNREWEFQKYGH
E3 CRL4^CRBN, sequence (Q13619 whole entry): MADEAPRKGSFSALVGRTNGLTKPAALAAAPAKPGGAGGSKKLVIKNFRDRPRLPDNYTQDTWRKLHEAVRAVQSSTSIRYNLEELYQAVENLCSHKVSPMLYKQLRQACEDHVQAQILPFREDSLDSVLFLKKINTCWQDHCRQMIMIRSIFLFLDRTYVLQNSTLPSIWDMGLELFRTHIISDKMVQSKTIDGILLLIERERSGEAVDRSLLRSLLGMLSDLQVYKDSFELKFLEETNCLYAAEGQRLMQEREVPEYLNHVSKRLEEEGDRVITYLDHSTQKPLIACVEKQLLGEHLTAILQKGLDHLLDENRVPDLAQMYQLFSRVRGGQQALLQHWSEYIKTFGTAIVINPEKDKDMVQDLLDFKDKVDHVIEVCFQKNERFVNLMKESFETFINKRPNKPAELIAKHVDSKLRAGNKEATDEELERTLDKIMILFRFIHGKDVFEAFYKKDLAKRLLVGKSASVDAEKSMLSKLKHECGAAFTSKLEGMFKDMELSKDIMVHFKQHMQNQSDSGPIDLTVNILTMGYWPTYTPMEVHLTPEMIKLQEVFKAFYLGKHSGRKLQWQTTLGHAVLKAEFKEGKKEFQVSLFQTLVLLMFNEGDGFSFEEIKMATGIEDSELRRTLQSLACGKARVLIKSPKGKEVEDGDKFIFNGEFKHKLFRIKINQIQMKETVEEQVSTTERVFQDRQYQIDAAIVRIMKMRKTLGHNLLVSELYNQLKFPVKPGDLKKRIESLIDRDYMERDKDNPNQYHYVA
E3 CRL4^CRBN, sequence (P62877 whole entry partner): as the sequence (P62877 whole entry partner) above
E3 CRL4^CRBN, sequence (Q16531 whole entry partner): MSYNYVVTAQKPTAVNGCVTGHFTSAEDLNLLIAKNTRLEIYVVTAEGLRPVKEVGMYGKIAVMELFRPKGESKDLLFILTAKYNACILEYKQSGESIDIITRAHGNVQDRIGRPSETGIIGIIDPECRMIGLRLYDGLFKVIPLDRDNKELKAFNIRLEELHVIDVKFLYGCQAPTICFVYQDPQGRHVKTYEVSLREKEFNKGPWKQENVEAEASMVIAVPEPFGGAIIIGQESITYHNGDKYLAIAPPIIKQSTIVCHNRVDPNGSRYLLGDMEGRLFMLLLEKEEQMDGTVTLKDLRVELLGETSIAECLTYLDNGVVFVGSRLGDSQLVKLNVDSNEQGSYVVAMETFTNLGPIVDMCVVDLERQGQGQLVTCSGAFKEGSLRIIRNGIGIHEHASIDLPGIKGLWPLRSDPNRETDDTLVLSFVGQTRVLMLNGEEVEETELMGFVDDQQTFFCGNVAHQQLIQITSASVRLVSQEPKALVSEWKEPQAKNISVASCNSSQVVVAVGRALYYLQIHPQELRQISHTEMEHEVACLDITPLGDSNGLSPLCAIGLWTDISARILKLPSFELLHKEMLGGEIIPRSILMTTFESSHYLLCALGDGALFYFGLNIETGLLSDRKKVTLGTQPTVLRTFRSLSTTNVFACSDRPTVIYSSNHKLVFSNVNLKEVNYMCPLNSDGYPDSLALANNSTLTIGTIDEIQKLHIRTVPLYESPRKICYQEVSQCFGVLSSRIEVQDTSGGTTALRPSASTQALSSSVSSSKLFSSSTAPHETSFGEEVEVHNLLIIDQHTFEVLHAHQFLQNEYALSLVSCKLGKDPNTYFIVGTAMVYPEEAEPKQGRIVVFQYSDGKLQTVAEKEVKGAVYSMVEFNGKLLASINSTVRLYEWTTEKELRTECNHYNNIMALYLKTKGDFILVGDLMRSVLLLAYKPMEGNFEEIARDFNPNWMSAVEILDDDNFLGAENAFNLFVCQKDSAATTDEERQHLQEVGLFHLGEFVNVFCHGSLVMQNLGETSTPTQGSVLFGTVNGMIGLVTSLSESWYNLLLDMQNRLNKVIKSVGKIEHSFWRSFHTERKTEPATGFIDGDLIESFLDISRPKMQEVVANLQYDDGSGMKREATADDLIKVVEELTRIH
E3 CRL4^CRBN, sequence (Q96SW2 whole entry partner): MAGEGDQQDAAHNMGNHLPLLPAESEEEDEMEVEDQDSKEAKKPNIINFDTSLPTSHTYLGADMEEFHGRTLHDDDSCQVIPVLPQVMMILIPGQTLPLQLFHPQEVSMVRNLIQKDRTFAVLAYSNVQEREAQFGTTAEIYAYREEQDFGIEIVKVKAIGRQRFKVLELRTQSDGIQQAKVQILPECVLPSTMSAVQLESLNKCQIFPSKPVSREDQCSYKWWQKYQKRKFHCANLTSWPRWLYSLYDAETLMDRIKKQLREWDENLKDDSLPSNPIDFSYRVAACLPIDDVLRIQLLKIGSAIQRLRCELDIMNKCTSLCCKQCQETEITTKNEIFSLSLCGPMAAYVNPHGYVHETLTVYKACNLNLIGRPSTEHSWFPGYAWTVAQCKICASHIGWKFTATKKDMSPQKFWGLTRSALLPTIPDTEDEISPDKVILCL
ROC1-CUL1, sequence (Q13616 whole entry): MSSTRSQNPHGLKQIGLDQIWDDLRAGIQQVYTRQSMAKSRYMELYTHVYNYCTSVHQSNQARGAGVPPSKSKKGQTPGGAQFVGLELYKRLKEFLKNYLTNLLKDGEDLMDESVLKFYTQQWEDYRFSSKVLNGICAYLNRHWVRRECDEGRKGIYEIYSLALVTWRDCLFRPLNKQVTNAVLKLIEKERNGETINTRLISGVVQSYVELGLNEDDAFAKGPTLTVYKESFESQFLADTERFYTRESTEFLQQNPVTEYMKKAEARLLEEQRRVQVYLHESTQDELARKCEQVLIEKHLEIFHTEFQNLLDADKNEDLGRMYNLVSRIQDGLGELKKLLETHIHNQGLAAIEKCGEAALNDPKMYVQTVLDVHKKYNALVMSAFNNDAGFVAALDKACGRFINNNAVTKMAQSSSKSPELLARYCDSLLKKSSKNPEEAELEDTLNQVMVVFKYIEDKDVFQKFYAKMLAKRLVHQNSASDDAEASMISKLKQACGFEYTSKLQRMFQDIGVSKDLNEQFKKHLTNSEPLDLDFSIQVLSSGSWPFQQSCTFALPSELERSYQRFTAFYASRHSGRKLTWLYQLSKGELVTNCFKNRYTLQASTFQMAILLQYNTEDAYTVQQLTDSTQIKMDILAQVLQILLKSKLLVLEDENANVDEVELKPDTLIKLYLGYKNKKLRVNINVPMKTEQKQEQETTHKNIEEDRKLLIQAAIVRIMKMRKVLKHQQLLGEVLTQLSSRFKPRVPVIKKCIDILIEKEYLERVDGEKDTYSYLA
ROC1-CUL1, sequence (P62877 whole entry partner): as the sequence (P62877 whole entry partner) above

For `O=c1c(Oc2ccccc2)c(C(F)(F)F)oc2c(O)c(O)ccc12` [#33, 7,8-dihydroxy-3-phenoxy-2-(trifluoromethyl)-4H-chromen-4-one], the “inhibition of ubiquitination of CK1α” value in test [1] is given as “Significant inhibitory effects”. The “discharge of Cdc34-Ub and production of Ub2 by ROC1-CUL1” value in test [2] is listed as “showed inhibition”. The Kd in test [3] came to 1840 nM.

Regarding `Cc1ccc(C(=O)Nc2ccc(S(=O)(=O)O)c3cc(S(=O)(=O)O)cc(S(=O)(=O)O)c23)cc1NC(=O)c1cccc(NC(=O)Nc2cccc(C(=O)Nc3cc(C(=O)Nc4ccc(S(=O)(=O)O)c5cc(S(=O)(=O)O)cc(S(=O)(=O)O)c45)ccc3C)c2)c1` [Suramin, suramin], the inhibition at 0.8 µM in test [4] (0.8 μM) was determined as 50%. Also, the inhibition at 5 µM in test [4] (5 μM) is 100%.
